How the values were obtained:
[1] = system: cysteines in MDA-MB-231 and Ramos cell proteomes; assay: Competitive isoTOP-ABPP in cell lysates (in vitro): proteomic reactivity / liganded cysteine rate; assay type: binding, human; settings: for proteomic reactivity value (liganded cysteine rate): fragment 500 μM, % of quantified cysteines with R ≥4
Protocol: All cell lines were obtained from ATCC, were used with a low passage number and were grown at 37° C. with 5% CO2. MDA-MB-231 cells and HEK-293T cells were grown in DMEM supplemented with 10% fetal bovine serum, penicillin, streptomycin and glutamine. Jurkat, Ramos and MUM2C cells were grown in RPMI-1640 medium supplemented with 10% fetal bovine serum, penicillin and streptomycin. For in vitro labeling, cells were grown to 100% confluence for MDA-MB-231 cells or until cell density reached 1.5 million cells/mL for Ramos and Jurkat cells. […] Cell pellets were lysed by sonication and fractionated (100,000 g, 45 min) to yield soluble and membrane fractions, which were then adjusted to a final protein concentration of 1.5 mg/mL for proteomics experiments and 1 mg/mL for gel-based ABPP experiments. The soluble lysate was prepared fresh from frozen pellets directly before each experiment. Protein concentration was determined using the Bio-Rad DC™ protein assay kit.
For each sample, 100 μL of streptavidin-agarose beads slurry (Pierce) was washed in 10 mL PBS and then resuspended in 5 mL PBS. The SDS-solubilized proteins were added to the suspension of streptavidin-agarose beads and the bead mixture was rotated for 3 h at ambient temperature. After incubation, the beads were pelleted by centrifugation (1,400 g, 3 min) and were washed (2×10 mL PBS and 2×10 mL water).
The beads were transferred to eppendorf tubes with 1 mL PBS, centrifuged (1,400 g, 3 min), and resuspended in PBS containing 6 M urea (500 μL). To this was added 10 mM DTT (25 μL of a 200 mM stock in water) and the beads were incubated at 65° C. for 15 mins. 20 mM iodoacetamide (25 μL of a 400 mM stock in water) was then added and allowed to react at 37° C. for 30 mins with shaking. The bead mixture was diluted with 900 μL PBS, pelleted by centrifugation (1,400 g, 3 min), and resuspended in 200 μL PBS. To this was added 1 mM CaCl2 ([…]) and trypsin (2 μg, Promega, sequencing grade) and the digestion was allowed to proceed overnight at 37° C. with shaking. The beads were separated from the digest with Micro Bio-Spin columns (Bio-Rad) by centrifugation (1,000 g, 1 min), washed (2×1 mL PBS and 2×1 mL water) and then transferred to fresh eppendorfs with 1 mL water. The washed beads were washed once further in 140 μL TEV buffer (50 mM Tris, pH 8, 0.5 mM EDTA, 1 mM DTT) and then resuspended in 140 μL TEV buffer. 5 μL TEV protease (80 μM) was added and the reactions were rotated overnight at 29° C. The TEV digest was separated from the beads with Micro Bio-Spin columns by centrifugation (1,400 g, 3 min) and the beads were washed once with water (100 μL). The samples were then acidified to a final concentration of 5% (v/v) formic acid and stored at −80° C. prior to analysis.

IMPDH2 (C140) = target: T1, IMPDH2 (C140) (Homo sapiens, UniProt P12268); assay: Click probe 18 labeling of recombinant IMPDH2 and its competition; assay type: binding; settings: probe 18 25 μM
T1 construct: Full length cDNAs encoding for IDH1 (Open Biosystems, Clone ID: 3880331) and IMPDH2 (Open Biosystems, Clone ID: 3447994); His6 (C); made in house; host or cells: E. coli BL21(DE3)

[2] = system: protein targets in MDA-MB-231 cells; assay: Whole protein capture with click probes (SILAC proteomics), native vs heat denatured; assay type: binding, human; settings: proteins liganded by parent fragment (3 / 14) and enriched by click probe (19 / 18)
Protocol: Protein enrichment by 18 and 19 was measured by whole protein capture of isotopically-SILAC labeled MDA-MB-231 cells using quantitative (SILAC) proteomics.

CASP8 C360 (Q14790) = CASP8 C360 (Q14790) (Homo sapiens, UniProt Q14790); assay: Competitive isoTOP-ABPP, cell lysates; assay type: binding
CASP8 C360 (Q14790), sequence (Q14790 whole entry, the tested form may be a part): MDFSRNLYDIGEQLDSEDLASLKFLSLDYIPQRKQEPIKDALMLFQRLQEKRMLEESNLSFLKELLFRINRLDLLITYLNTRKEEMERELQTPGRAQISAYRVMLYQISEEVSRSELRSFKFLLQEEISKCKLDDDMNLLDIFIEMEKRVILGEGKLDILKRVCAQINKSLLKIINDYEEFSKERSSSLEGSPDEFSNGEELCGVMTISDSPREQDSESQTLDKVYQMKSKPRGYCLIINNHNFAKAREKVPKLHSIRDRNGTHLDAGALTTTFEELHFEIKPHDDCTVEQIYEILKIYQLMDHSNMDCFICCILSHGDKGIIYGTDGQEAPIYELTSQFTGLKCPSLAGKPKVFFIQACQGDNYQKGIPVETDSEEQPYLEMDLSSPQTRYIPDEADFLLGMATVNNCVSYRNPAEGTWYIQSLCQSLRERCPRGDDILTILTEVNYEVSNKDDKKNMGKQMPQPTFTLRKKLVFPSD
Protocol: (§1) TEV digests were pressure loaded onto a 250 μm (inner diameter) fused silica capillary column packed with C18 resin (Aqua 5 μm, Phenomenex). The samples were analyzed by multidimensional liquid chromatography tandem mass spectrometry (MudPIT), using an LTQ-Velos Orbitrap mass spectrometer (Thermo Scientific) coupled to an Agilent 1200-series quaternary pump. The peptides were eluted onto a biphasic column with a 5 μm tip (100 μm fused silica, packed with C18 (10 cm) and bulk strong cation exchange resin (3 cm, SCX, Phenomenex,)) in a 5-step MudPIT experiment, using 0%, 30%, 60%, 90%, and 100% salt bumps of 500 mM aqueous ammonium acetate and using a gradient of 5-100% buffer B in buffer A (buffer A: 95% water, 5% acetonitrile, 0.1% formic acid; buffer B: 5% water, 95% acetonitrile, 0.1% formic acid) as has been described in Weerapana et al. Nat Protoc 2:1414-1425 (2007). Data was collected in data-dependent acquisition mode with dynamic exclusion enabled (20 s, repeat of 2). One full MS (MS1) scan (400-1800 m/z) was followed by 30 MS2 scans (ITMS) of the nth most abundant ions.
(§2) The ratios of heavy/light for each unique peptide (DMSO/compound treated; isoTOP-ABPP ratios, R values) were quantified with in-house CIMAGE software, using default parameters (3 ms s per peak and signal to noise threshold 2.5). Site-specific engagement of electrophilic fragments was assessed by blockade of IA-alkyne probe labeling. […] Ratios for unique peptide entries were calculated for each experiment; overlapping peptides with the same modified cysteine (e.g. different charge states, MudPIT chromatographic steps or tryptic termini) were grouped together and the median ratio was reported as the final ratio (R). The peptide ratios reported by CIMAGE were further filtered to ensure the removal or correction of low quality ratios in each individual dataset. The quality filters applied were the following: removal of half tryptic peptides; for ratios with high standard deviations from the median (90% of the median or above) the lowest ratio was taken instead of the median; removal of peptides with R=20 and only a single ms2 event triggered during the elution of the parent ion; manual annotation of all the peptides with ratios of 20, removing any peptides with low-quality elution profiles that remained after the previous curation steps. Proteome reactivity values for individual fragments were computed as the percentage of the total quantified cysteine-containing peptides with R values≥4 (defined as liganded cysteines) for each replicate experiment and the final proteome reactivity value was calculated as the mean for all replicate experiments for each fragment from both MDA-MB-231 and Ramos cellular proteomes.
(§3) Biological replicates of the same compound and cell-line were averaged if the standard deviation was below 60% of the mean; otherwise the lowest value of the ratio set was taken.

DCUN1D1 C115 (Q96GG9) = DCUN1D1 C115 (Q96GG9) (Homo sapiens, UniProt Q96GG9); assay: Competitive isoTOP-ABPP, cell lysates; assay type: binding; settings: 500 μm, in-vitro_ramos_231
DCUN1D1 C115 (Q96GG9), sequence (Q96GG9 whole entry): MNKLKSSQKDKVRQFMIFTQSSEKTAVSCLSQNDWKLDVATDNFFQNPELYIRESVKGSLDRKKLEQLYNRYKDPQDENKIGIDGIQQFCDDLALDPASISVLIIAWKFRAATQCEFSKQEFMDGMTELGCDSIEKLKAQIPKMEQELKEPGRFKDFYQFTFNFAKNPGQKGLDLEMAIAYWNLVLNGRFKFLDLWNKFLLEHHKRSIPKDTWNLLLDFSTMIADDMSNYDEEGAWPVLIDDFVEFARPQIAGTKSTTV
Protocol: as §1, §2, §3

GSTP1 C48 (P09211) = GSTP1 C48 (P09211) (Homo sapiens, UniProt P09211); assay: Competitive isoTOP-ABPP, cell lysates; assay type: binding; settings: 500 μm, in-vitro_ramos_231;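 note: Heavy/light ratio DMSO over fragment-treated so higher means more cysteine engagement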
GSTP1 C48 (P09211), sequence (P09211 whole entry, the tested form may be a part): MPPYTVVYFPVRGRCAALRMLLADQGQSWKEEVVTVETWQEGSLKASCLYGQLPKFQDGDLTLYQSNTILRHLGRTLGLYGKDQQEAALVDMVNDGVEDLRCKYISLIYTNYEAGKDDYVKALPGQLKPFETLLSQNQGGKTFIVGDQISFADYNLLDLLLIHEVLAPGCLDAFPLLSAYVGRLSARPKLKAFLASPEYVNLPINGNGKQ
Protocol: as §1, §2, §3

IDH1 C269 (O75874) = IDH1 C269 (O75874) (Homo sapiens, UniProt O75874); assay: Competitive isoTOP-ABPP, cell lysates; assay type: binding; settings: 500 μm, in-vitro_ramos_231
IDH1 C269 (O75874), sequence (O75874 whole entry): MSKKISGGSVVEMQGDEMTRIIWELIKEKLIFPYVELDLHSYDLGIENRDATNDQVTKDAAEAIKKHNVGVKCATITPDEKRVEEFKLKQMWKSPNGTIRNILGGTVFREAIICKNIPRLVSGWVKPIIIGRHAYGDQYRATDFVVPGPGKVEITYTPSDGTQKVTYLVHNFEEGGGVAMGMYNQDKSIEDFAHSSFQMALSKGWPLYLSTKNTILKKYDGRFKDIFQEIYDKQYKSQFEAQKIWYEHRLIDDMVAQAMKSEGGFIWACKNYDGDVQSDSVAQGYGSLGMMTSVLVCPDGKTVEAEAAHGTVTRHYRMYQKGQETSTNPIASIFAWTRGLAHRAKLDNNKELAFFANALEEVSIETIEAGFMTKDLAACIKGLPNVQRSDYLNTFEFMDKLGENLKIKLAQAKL
Protocol: as §1, §2, §3

MLTK C22 (Q9NYL2) = MLTK C22 (Q9NYL2) (Homo sapiens, UniProt Q9NYL2); assay: Competitive isoTOP-ABPP, cell lysates; assay type: binding; settings: 500 μm, in-vitro_ramos_231
MLTK C22 (Q9NYL2), sequence (Q9NYL2 whole entry): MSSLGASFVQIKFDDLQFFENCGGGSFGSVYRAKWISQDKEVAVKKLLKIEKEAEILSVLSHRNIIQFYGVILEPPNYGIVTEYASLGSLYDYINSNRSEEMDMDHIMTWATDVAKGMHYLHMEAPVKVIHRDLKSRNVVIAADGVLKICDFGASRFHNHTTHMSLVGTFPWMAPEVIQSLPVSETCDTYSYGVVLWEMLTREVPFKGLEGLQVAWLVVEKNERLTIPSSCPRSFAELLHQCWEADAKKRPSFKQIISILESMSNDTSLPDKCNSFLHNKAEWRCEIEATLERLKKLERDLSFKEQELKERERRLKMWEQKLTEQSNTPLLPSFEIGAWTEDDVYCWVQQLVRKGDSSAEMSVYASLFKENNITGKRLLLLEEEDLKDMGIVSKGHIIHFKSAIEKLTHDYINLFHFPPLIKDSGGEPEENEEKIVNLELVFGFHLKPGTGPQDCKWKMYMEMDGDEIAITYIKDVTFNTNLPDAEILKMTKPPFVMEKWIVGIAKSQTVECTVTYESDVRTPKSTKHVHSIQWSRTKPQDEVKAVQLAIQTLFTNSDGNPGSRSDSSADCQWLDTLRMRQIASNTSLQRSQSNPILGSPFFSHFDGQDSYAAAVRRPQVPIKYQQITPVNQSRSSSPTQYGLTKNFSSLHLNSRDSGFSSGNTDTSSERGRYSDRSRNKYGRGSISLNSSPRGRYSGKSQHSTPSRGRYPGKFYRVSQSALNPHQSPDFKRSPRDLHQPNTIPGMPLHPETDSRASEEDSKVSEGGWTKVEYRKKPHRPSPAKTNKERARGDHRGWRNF
Protocol: as §1, §2, §3

PDIA6 C190 (Q15084) = target: T2, PDIA6 C190 (Q15084) (Homo sapiens, UniProt Q15084); assay: Competitive isoTOP-ABPP, cell lysates; assay type: binding; settings: 500 μm, in-vitro_ramos_231;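 note: Heavy/light ratio DMSO over fragment-treated so higher means more cysteine engagement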
T2 sequence (Q15084 20-440): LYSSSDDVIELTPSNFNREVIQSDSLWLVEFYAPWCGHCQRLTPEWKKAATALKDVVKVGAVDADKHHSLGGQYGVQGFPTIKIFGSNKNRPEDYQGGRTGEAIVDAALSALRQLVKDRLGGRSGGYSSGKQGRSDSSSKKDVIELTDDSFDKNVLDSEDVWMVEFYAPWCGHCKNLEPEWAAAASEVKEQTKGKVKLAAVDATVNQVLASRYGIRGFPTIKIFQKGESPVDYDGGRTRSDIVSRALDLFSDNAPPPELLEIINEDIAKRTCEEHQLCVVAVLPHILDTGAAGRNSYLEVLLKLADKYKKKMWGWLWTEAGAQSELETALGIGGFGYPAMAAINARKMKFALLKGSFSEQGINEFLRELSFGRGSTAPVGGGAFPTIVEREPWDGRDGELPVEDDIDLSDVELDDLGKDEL
Protocol: as §1, §2, §3

PDIA6 C55 (Q15084) = target: T3, PDIA6 C55 (Q15084) (Homo sapiens, UniProt Q15084); assay: Competitive isoTOP-ABPP, cell lysates; assay type: binding; settings: 500 μm, in-vitro_ramos_231
T3 sequence (Q15084 20-440): T2 sequence (Q15084 20-440)
Protocol: as §1, §2, §3

PRMT1 C109 (Q99873) = PRMT1 C109 (Q99873) (Homo sapiens, UniProt Q99873); assay: Competitive isoTOP-ABPP, cell lysates; assay type: binding; settings: 500 μm, in-vitro_ramos_231;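 note: Heavy/light ratio DMSO over fragment-treated so higher means more cysteine engagement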
PRMT1 C109 (Q99873), sequence (Q99873 whole entry, the tested form may be a part): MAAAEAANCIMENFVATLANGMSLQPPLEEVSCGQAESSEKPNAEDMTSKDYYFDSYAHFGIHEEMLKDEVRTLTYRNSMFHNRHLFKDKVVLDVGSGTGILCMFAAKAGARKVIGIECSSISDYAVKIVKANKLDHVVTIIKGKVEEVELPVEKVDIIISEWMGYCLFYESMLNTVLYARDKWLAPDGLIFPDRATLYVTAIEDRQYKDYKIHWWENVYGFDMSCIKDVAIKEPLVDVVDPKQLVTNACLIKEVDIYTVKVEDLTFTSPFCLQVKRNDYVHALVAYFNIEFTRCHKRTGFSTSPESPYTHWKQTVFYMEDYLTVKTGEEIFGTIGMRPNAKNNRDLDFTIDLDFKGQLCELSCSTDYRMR
Protocol: as §1, §2, §3

STAT3 C259 (P40763) = STAT3 C259 (P40763) (Homo sapiens, UniProt P40763); assay: Competitive isoTOP-ABPP, cell lysates; assay type: binding; settings: 500 μm, in-vitro_ramos_231
STAT3 C259 (P40763), sequence (P40763 whole entry): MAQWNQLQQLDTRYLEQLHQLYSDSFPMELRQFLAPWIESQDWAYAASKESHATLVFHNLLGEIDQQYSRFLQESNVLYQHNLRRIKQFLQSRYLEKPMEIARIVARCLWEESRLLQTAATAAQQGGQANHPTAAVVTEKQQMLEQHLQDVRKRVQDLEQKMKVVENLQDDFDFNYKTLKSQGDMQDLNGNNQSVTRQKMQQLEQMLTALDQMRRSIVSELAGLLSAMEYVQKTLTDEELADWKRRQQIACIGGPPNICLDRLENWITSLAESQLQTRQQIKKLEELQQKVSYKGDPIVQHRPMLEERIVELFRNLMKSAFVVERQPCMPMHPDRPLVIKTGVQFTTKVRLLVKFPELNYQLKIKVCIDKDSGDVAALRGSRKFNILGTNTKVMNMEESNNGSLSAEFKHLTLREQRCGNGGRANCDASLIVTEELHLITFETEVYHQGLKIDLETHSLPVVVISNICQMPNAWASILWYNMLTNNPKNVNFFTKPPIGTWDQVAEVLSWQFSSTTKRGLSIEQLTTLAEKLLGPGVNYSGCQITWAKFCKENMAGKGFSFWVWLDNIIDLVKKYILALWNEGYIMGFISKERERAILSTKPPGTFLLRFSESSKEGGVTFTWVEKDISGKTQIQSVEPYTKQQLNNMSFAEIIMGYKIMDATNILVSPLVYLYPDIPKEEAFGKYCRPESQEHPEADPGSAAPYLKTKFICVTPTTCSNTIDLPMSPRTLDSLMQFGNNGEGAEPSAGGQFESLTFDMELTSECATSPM
Protocol: as §1, §2, §3

XPO1 C34 (O14980) = XPO1 C34 (O14980) (Homo sapiens, UniProt O14980); assay: Competitive isoTOP-ABPP, cell lysates; assay type: binding; settings: 500 μm, in-vitro_ramos_231
XPO1 C34 (O14980), sequence (O14980 whole entry): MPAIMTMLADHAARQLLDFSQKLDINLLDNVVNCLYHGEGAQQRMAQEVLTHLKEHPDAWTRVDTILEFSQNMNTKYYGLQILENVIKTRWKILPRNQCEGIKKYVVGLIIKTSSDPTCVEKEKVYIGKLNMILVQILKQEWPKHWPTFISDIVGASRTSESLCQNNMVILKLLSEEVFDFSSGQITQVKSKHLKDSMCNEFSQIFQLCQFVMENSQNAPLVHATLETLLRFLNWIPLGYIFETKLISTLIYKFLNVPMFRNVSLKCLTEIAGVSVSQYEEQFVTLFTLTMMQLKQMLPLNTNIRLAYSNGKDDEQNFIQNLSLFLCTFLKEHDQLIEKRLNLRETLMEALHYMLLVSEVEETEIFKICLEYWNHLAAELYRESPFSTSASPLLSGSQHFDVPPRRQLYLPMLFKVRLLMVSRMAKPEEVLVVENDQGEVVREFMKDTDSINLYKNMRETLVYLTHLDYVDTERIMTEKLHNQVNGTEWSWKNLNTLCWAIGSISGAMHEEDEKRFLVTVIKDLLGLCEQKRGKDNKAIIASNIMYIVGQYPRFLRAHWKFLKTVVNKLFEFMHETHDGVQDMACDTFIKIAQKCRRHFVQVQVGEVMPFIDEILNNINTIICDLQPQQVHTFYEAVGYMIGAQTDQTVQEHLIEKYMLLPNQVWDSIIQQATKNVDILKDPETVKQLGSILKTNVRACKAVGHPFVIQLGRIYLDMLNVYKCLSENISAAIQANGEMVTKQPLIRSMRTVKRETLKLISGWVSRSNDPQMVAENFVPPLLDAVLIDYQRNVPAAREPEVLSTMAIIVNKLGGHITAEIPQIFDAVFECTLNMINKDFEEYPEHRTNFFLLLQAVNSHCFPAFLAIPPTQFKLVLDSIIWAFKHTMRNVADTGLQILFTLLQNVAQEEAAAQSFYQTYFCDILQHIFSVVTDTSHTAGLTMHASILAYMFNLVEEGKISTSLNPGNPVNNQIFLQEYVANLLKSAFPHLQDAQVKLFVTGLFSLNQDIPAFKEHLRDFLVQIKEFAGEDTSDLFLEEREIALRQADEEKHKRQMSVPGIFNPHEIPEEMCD
Protocol: as §1, §2, §3

ACAT1 C119 (P24752) = target: T4, ACAT1 C119 (P24752) (Homo sapiens, UniProt P24752); assay: Competitive isoTOP-ABPP, cell lysates; assay type: binding; settings: 500 μm, in-vitro_ramos_231
T4 sequence (P24752 34-427): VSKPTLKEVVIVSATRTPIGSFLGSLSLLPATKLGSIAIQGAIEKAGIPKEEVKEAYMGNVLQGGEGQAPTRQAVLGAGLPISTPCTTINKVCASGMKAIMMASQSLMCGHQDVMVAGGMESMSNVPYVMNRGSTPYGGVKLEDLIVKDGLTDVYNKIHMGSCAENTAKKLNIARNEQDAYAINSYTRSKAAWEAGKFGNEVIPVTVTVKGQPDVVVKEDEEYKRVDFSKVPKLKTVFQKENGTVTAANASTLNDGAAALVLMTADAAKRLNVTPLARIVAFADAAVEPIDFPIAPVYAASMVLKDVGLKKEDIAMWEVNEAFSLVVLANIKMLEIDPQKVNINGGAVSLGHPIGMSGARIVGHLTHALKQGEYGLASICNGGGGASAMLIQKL

ACAT1 C196 (P24752) = target: T5, ACAT1 C196 (P24752) (Homo sapiens, UniProt P24752); assay: Competitive isoTOP-ABPP, cell lysates; assay type: binding; settings: 500 μm, in-vitro_ramos_231
T5 sequence (P24752 34-427): T4 sequence (P24752 34-427)

ACAT1 C413 (P24752) = target: T6, ACAT1 C413 (P24752) (Homo sapiens, UniProt P24752); assay: Competitive isoTOP-ABPP, cell lysates; assay type: binding; settings: 500 μm, in-vitro_ramos_231
T6 sequence (P24752 34-427): T4 sequence (P24752 34-427)

ACAT1 C126 (P24752) = target: T7, ACAT1 C126 (P24752) (Homo sapiens, UniProt P24752); assay: Competitive isoTOP-ABPP, cell lysates; assay type: binding; settings: 500 μm, in-vitro_ramos_231
T7 sequence (P24752 34-427): T4 sequence (P24752 34-427)

pro-CASP8 = target: T8, pro-CASP8 (Homo sapiens, UniProt Q14790, D374A/D384A); assay: Click probe 61 labeling of pro-CASP8 and its competition; assay type: binding
T8 construct: a truncated CASP8 (residues 217-479) without the CARD domain; His6 (C); made in house; host or cells: E. coli BL21(DE3)pLysS
T8 sequence (Q14790 217-479 D374A/D384A): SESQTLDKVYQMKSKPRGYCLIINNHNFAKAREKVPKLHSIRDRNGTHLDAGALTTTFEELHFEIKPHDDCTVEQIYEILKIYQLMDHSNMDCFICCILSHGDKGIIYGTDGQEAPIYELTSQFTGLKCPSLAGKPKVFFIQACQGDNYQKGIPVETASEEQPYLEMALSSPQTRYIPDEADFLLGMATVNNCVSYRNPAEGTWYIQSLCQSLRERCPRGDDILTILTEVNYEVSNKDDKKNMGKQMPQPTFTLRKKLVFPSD

SMILES: C=CC(=O)Nc1cc(C(F)(F)F)cc(C(F)(F)F)c1 [compound 14]
- proteomic reactivity value (liganded cysteine rate) [1]: 3.4%
- inhibition of 18 labeling of IMPDH2 by fragments (IMPDH2 (C140)): inhibited

SMILES: CC(=O)Nc1cc(C(F)(F)F)cc(C(F)(F)F)c1 [compound 17]
- relative proteomic reactivity (in words) ([1]; 500 μM, electrophiles on common 3,5-di(trifluoromethyl)phenyl group): negligible activity
- proteomic reactivity value (liganded cysteine rate) [1]: < 0.2%

SMILES: C#CCCCCNC(=O)c1cc(NC(=O)CCl)cc(C(F)(F)F)c1 [compound 19]
- percentage of quantified protein targets sensitive to heat denaturation [2]: 64%

SMILES: Cc1ncc(CO)c(CNC(=O)CCl)c1O [compound 54]
- isoTOP-ABPP reactivity profile ratio, Q14790_C360 (CASP8 C360 (Q14790); 500 μm, in-vitro_ramos_231): 1.2
- isoTOP-ABPP reactivity profile ratio, Q96GG9_C115 (DCUN1D1 C115 (Q96GG9)): 1.1
- isoTOP-ABPP reactivity profile ratio, P09211_C48 (GSTP1 C48 (P09211)): 1.3
- isoTOP-ABPP reactivity profile ratio, O75874_C269 (IDH1 C269 (O75874)): 1.1
- isoTOP-ABPP reactivity profile ratio, Q9NYL2_C22 (MLTK C22 (Q9NYL2)): 1.1
- isoTOP-ABPP reactivity profile ratio, Q15084_C190 (PDIA6 C190 (Q15084)): 1.2
- isoTOP-ABPP reactivity profile ratio, Q15084_C55 (PDIA6 C55 (Q15084)): 1.2
- isoTOP-ABPP reactivity profile ratio, Q99873_C109 (PRMT1 C109 (Q99873)): 1.2
- isoTOP-ABPP reactivity profile ratio, P40763_C259 (STAT3 C259 (P40763)): 1.3
- isoTOP-ABPP reactivity profile ratio, O14980_C34 (XPO1 C34 (O14980)): 1.1
- isoTOP-ABPP reactivity profile ratio, P24752_C119 (ACAT1 C119 (P24752)): 1.0
- isoTOP-ABPP reactivity profile ratio, P24752_C196 (ACAT1 C196 (P24752)): 1.1
- isoTOP-ABPP reactivity profile ratio, P24752_C413 (ACAT1 C413 (P24752)): 1.1
- isoTOP-ABPP reactivity profile ratio, P24752_C126 (ACAT1 C126 (P24752)): 1.1

SMILES: C#Cc1cccc(C(=O)N2CCC(N(C(=O)CCl)c3ccccc3)CC2)c1 [compound 61]
- direct labeling of pro-CASP8 by click probe (pro-CASP8): strongly labeled
- R value for direct labeling of C360 (10 versus 100 μM probe) (CASP8 C360 (Q14790); Jurkat cell lysates): 2

Source: patent US10670605B2, “Cysteine reactive probes and uses thereof” (The Scripps Research Institute, priority 2015, dated 2020)
